ChEMBL document CHEMBL1275485, “The antimalarial trioxaquine DU1301 alkylates heme in malaria-infected mice” (Antimicrob Agents Chemother, 2008)
Active and inactive are the calls of the source. The calls are words filed in the database; no cut-off is given here.

Legend:
Spleen = assay: Induction of heme alkylation in Plasmodium vinckei petteri-infected Swiss albino mice (Mus musculus) spleen assessed as covalent heme-drug adduct formation at 100 mg/kg, perorally administered as single dose measured by liquid chromatography-mass spectrometry method; type: functional, organism-based; set-up: dose 100 mg/kg
Kidney = assay: Induction of heme alkylation in Plasmodium vinckei petteri-infected Swiss albino mice (Mus musculus) kidney assessed as heme-drug adduct at 100 mg/kg, perorally administered as single dose measured by liquid chromatography-mass spectrometry method; type: functional, organism-based; set-up: dose 100 mg/kg

CC(C)C1=C[C@H]2OC3(CCC(NCCNc4ccnc5cc(Cl)ccc45)CC3)OO[C@@]2(C)CC1 (some centres not stated)
Activity (Spleen): Active
Activity (Kidney): inactive
